Data as given in PubChem BioAssay AID1845211 (Molecular Pharmacology Branch, DTP, NCI, 2023).
pIC50: −log10 of the molar value.

Tested on: NCI-H322M multicellular tumor spheroids, viability (% test/control)
Assay: Anticancer human tumor NCI-H322M cell line growth inhibition;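 for viability, T/C: spheroids exposed to compound for seven days before readout; 100% = DMSO vehicle control wells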
Settings: for viability, T/C: stronger effect = lower value
In short: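 Complex spheroids of malignant cells with endothelial cells and mesenchymal stem cells; agents alone or combined, from near clinical Cmax (or 10 microM if unknown) down in half-log steps, 0.25% DMSO final.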

Compound: Cn1nnc2c(C(N)=O)ncn2c1=O
- pIC50 (compound alone, run of 12/02/2019): < 4.00

Compound: COc1ccc([C@@H](O)c2cc(-c3ncnc4cc(N5CCOCC5)ccc34)c(F)cc2Cl)nn1 + Cn1nnc2c(C(N)=O)ncn2c1=O
- pIC50 (curve of first compound, second compound 1 µM): 5.43
- pIC50 (curve of first compound, second compound 3.16 µM): 5.85
- pIC50 (curve of first compound, second compound 10 µM): 5.69
- pIC50 (curve of first compound, second compound 31.6 µM): 5.70
- pIC50 (curve of first compound, second compound 100 µM): 5.72
- viability, T/C (second compound 1 µM, first compound 0.0316 µM): 86%
- viability, T/C (second compound 1 µM, first compound 0.1 µM): 77.2%
- viability, T/C (second compound 1 µM, first compound 0.316 µM): 85.8%
- viability, T/C (second compound 1 µM, first compound 1 µM): 55.5%
- viability, T/C (second compound 1 µM, first compound 3.16 µM): 57.1%
- viability, T/C (second compound 1 µM, first compound 10 µM): 35.4%
- viability, T/C (second compound 3.16 µM, first compound 0.0316 µM): 78.2%
- viability, T/C (second compound 3.16 µM, first compound 0.1 µM): 80.8%
- viability, T/C (second compound 3.16 µM, first compound 0.316 µM): 81.2%
- viability, T/C (second compound 3.16 µM, first compound 1 µM): 52.9%
- viability, T/C (second compound 3.16 µM, first compound 3.16 µM): 50.1%
- viability, T/C (second compound 3.16 µM, first compound 10 µM): 35.8%
- viability, T/C (second compound 10 µM, first compound 0.0316 µM): 105%
- viability, T/C (second compound 10 µM, first compound 0.1 µM): 76.9%
- viability, T/C (second compound 10 µM, first compound 0.316 µM): 68.2%
- viability, T/C (second compound 10 µM, first compound 1 µM): 61.2%
- viability, T/C (second compound 10 µM, first compound 3.16 µM): 46.8%
- viability, T/C (second compound 10 µM, first compound 10 µM): 35.3%
- viability, T/C (second compound 31.6 µM, first compound 0.0316 µM): 83.6%
- viability, T/C (second compound 31.6 µM, first compound 0.1 µM): 94.6%
- viability, T/C (second compound 31.6 µM, first compound 0.316 µM): 65.7%
- viability, T/C (second compound 31.6 µM, first compound 1 µM): 58.9%
- viability, T/C (second compound 31.6 µM, first compound 3.16 µM): 47.9%
- viability, T/C (second compound 31.6 µM, first compound 10 µM): 39.5%
- viability, T/C (second compound 100 µM, first compound 0.0316 µM): 80.7%
- viability, T/C (second compound 100 µM, first compound 0.1 µM): 75.5%
- viability, T/C (second compound 100 µM, first compound 0.316 µM): 82.7%
- viability, T/C (second compound 100 µM, first compound 1 µM): 58.6%
- viability, T/C (second compound 100 µM, first compound 3.16 µM): 44.8%
- viability, T/C (second compound 100 µM, first compound 10 µM): 34.4%
